Results as given in patent US7282507B2, “Indole derivatives as selective androgen receptor modulators (SARMS)” (Janssen Pharmaceutica N.V., priority 2004, dated 2007).

What was measured:
[1] = molecular target: T1, androgen receptor (AdEasy+rAR, L929 cells) (Rattus norvegicus, UniProt P15207); experiment: L929 Androgen Receptor Functional Assay, Adenovirus Transduction; assay type: cell-based; conditions: agonist testing, 3000 nM
T1 construct: expressed in transfected cells; host or cells: L929 cells transduced with adenovirus AdEasy+rAR
T1 sequence (P15207 1-902): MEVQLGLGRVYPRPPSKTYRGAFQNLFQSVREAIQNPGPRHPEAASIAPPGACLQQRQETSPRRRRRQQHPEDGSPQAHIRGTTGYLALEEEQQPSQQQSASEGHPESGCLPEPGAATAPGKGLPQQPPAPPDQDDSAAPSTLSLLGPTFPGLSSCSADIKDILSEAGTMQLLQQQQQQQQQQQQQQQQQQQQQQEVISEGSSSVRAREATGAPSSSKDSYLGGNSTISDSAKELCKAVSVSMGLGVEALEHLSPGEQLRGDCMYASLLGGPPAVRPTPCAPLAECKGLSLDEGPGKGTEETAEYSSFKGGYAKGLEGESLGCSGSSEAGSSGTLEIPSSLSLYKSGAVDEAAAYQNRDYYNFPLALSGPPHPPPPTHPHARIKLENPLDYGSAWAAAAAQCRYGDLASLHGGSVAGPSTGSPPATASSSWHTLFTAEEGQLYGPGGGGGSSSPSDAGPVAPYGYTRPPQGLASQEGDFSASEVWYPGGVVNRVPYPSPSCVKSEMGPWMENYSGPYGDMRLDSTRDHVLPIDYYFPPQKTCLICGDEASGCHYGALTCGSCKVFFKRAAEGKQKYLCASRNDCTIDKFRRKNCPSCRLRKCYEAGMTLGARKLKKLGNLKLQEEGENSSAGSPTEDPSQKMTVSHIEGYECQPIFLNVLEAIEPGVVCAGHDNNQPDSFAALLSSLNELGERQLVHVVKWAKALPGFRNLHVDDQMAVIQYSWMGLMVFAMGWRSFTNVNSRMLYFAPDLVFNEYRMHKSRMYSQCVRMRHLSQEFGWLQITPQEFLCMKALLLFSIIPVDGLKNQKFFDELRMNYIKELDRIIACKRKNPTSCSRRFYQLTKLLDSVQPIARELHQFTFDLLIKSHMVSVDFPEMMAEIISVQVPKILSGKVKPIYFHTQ
Description: L929 cells were plated in 96-well plates at 20,000 cells per well, in DMEM/F12 (GIBCO) containing 10% (v/v) charcoal-treated fetal bovine serum (Hyclone) and lacking phenol red. The plates were then incubated overnight at 37° C. in 5% (v/v) humidified CO2.
Test compound dilutions were prepared in 100% (v/v) DMSO, if necessary. Each dilution was made to 1250× the final desired assay concentration.
First, 2 mL of DMEM/F12 lacking phenol red was pipetted into the wells of a 2-mL 96-well assay block. Next, 4 μL of the 1250× test compound dilutions were pipetted into each well of the assay block. The mixtures within the well were then carefully mixed by pipette.
In a 15 mL or 50 mL sterile centrifuge tube, a 2.5 nM (2.5×) dilution of R1881 (methyl-trienolone) in DMEM/F12 lacking phenol red was prepared.
In a second 15 mL or 50 mL centrifuge tube a solution containing an equal volume of DMEM to the first and an equal volume of 100% (v/v) DMSO to the volume of R1881 used in the first tube was prepared.
In a 15 mL or 50 mL sterile centrifuge tube, a dilution in DMEM/F12 of the adenovirus AdEasy+rAR at an moi of 1:500 per well was prepared.
The medium was removed from the 96-well plates by inversion and dried, inverted, very briefly. As soon as possible after medium removal, 40 μL of the diluted unlabeled test compound was added to each well, in duplicate. To each well designated for antagonist testing was added 40 μL of the 2.5 nM R1881 dilution to the wells for antagonist testing. To each well designated for agonist testing was added 40 μL of the DMSO dilution. Then 20 μL of the diluted adenovirus were added to all wells. The plates were incubated for 48 hours at 37° C. in 5% (v/v) humidified CO2.
To each well was added 100 μL of Steady-Glo luciferase assay substrate (Promega) and the plates were placed on a rotary shaker for 1 min. The plates were then incubated at room temperature in the dark for one hour. The contents of each well were then transferred to a white microtiter plate (Packard) and read on a Luminoskan Ascent (Thermo Lab Systems).
L929 AR percent activity was determined by testing dilutions of the test compound using a concentration of 3000 nM unless otherwise noted. L929 percent inhibition was determined by testing dilutions of the test compound using a concentration of 3000 nM. […] Luciferase activity per well were measured and EC50s and IC50s determined by linear regression.

[2] = molecular target: T2, androgen receptor (rat ventral prostate cytosol) (Rattus norvegicus, UniProt P15207); experiment: Androgen Receptor Binding Using Rat Ventral Prostate Cytosol; conditions: for IC50: read-out: IC50 (nM), Androgen Receptor Binding (Rat Cytosol); for inhibition at 1 µM: read-out: % Inhibition, Androgen Receptor Binding (Rat Cytosol)
T2 construct: from tissue; host or cells: ventral prostate cytosol of castrated male Sprague Dawley or Wistar rats
T2 sequence (P15207 1-902): T1 sequence (P15207 1-902)
Description: The assay was run on a 96 well plate with each well filled with a total reaction volume 150 μL, of a solution containing 5 pmol androgen receptor LBD (Panvera) or 30 μL of freshly prepared rat cytosol, 0.5 nM [^3H] […] (TED buffer contains 10 mM Tris.HCl pH 7.4, 1 mM sodium molybdate, 1.5 mM EDTA, 1 mM DTT and 10% (v/v) glycerol.)
On day one, the solution containing receptor, tracer and TED buffer was distributed into a 96 well plate. Diluted test compound or control vehicle was then added to individual wells and the plate incubated at 4° C. overnight.
On day two, to each well was then added 20 μL human γ-globulin (ICN 823102), prepared at 25 mg/ml in TE pH 8.0, and 55 μL 40% polyethylene glycol 8000 (J T Baker U222-08), prepared in TE pH 8.0. The plate was incubated at 4° C. for 60 minutes. During incubation, the harvester was rinsed with 10% PEG 8000, prepared in TE pH 8.0, and a GF/C Unifilter-96 was pre-wet with 10% PEG. The binding reaction was filtered, the retentate was washed three times with 10% PEG and dried under vacuum for a couple of minutes, then dried at 50° C. for 5 min and the plate was bottom sealed. Next, 25 μL of Microscint-20 (Packard) was added to the filter wells and the plate was top sealed. The plate wells were then counted on a TopCount (Packard).
Rat Prostate Cytosol Preparation:
Male Sprague Dawley or Wistar rats (Charles River, 200-300 g) were used for each preparation. The day before preparing the cytosol, the rats were castrated using standard surgical procedures.
The rats were euthanized by carbon dioxide asphyxiation. The rat prostates were quickly removed and placed on ice in pre-chilled, pre-weighed 50 mL plastic tubes. No more than five prostates were placed into one tube. The tubes were then weighed and the prostate tissue wet weights calculated.
To the chilled prostate tissue was then added […] of chilled homogenization buffer. The homogenization buffer was freshly prepared by mixing 10 mM Tris.HCl, pH 7.4, 1 mM sodium molybdate, 1.5 mM EDTA, 1 mM dithiothreitol, 10% (v/v) glycerol and 1% protease inhibitor cocktail (Sigma P 8340).
The prostate tissue was homogenized in a cold room using a pre-chilled Polytron PT3000 homogenizer (Brinkmann). Homogenization was performed at a speed setting of 20, three times for 10 sec bursts. The tubes containing the prostate tissue was kept on ice while homogenizing. The homogenate was allowed to rest on ice for 20 sec between bursts.
The homogenate was then placed into pre-chilled 3 mL polycarbonate ultracentrifuge tubes and centrifuged in the TLA-100 rotor of a TL-100 ultracentrifuge for 12 min at 100,000 rpm at 4° C. The resulting supernatant was stored in 1 mL aliquots at −80° C. until needed.
Binding to the androgen receptor was determined according to the protocol described in Example 86 using the above prepared rat cytosol.
% Inhibition was determined by testing dilutions of the test compound (usually duplicates of 10 μM) in the binding assay. Counts per well were measured and percents of inhibition determined. […] Counts per well were measured and IC50s determined by linear regression.

[3] = test system: testosterone-enhanced ventral prostate and seminal vesicle weights; experiment: Ventral Prostate and Seminal Vesicle Weight in vivo Assay; parameters: species or system rat; conditions: immature castrated male Sprague Dawley rats, once daily for five days, usually orally 40 mg/kg, with testosterone propionate 2 mg/kg s.c. Also: key: 'active' if the non weight adjusted prostate weight was ≦40 mg or the % Inhibition prostate weight, body weight adjusted was ≧40% @ 2 mg/day dosage; ID50's, if determined, of ≦15 mg/day also indicated an 'active' compound; listed herein as 'inactive' as they did not meet the specified criteria defined above.
Procedure, shortened: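 Wet weights of ventral prostate and seminal vesicles were taken on day six. Castrated immature male Sprague Dawley rats had received five daily doses of testosterone propionate (2 mg/kg s.c.) together with test compound, typically 40 mg/kg orally. Activity was scored from absolute prostate weight or body-weight-adjusted % inhibition.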

Row | Structure (SMILES) | % Inhibition, Androgen Receptor Binding (Rat Cytosol) ([2]; Concentration 1000 nM) [%] | IC50 [2] [nM] | also measured
1 | CC(O)(Sc1ccc(N)cc1)c1cc2cc(Cl)c(C(F)(F)F)cc2[nH]1 (racemic) [Compound 265] |  |  | % Activity, L929 androgen receptor functional assay [1]: −1%; % Inhibition, Androgen Receptor Binding (Rat Cytosol) ([2]; Concentration 3000 nM): 93.5%
2 | CN(C)c1ccc(S(=O)(=O)CC(C)(O)c2cc3cc(Cl)c(C(F)(F)F)cc3[nH]2)cc1 (racemic) [Compound 126] |  |  | active / inactive: inhibition of testosterone-enhanced prostate weight [3]: inactive; % Activity, L929 androgen receptor functional assay [1]: −5%; % Inhibition, Androgen Receptor Binding (Rat Cytosol) ([2]; Concentration 3000 nM): −30%
3 | CS(=O)(=O)c1ccc(CN2CCC(O)(c3cc4cc(Cl)c(C(F)(F)F)cc4[nH]3)CC2)cc1 [Compound 34] | 18 | 5700 | 
4 | CC(O)(CS(=O)(=O)c1ccc(F)cc1)c1cc2cc(C#N)c(C(F)(F)F)cc2[nH]1 (centres unmarked) [Compound 110] |  |  | inhibition at 1 µM ([2]; Concentration 1000 nM): 58.5%
5 | O=[N+]([O-])c1cc2cc(C3(O)CCN(Cc4ccc(Cl)c(Cl)c4)CC3)[nH]c2cc1C(F)(F)F [Compound 43] | 5.8 | 9100 | 
6 | COc1cccc(CN2CCC(O)(c3cc4cc(Cl)c(C(F)(F)F)cc4[nH]3)CC2)c1 [Compound 29] | −1.8 | 4700 | 
7 | OC1(c2cc3cc(Cl)c(C(F)(F)F)cc3[nH]2)CCN(Cc2ccc(C(F)(F)F)cc2)CC1 [Compound 33] | 11 | 29000 | 
8 | COc1ccc(CN2CCC(O)(c3cc4cc(Cl)c(C(F)(F)F)cc4[nH]3)CC2)cc1 [Compound 35] | −19 | 4200 | 
9 | OC1(c2cc3cc(Cl)c(C(F)(F)F)cc3[nH]2)CCN(Cc2ccc(Cl)cc2)CC1 [Compound 31] | 20 | 4050 | 
10 | O=[N+]([O-])c1cc2cc(C3(O)CCN(Cc4ccc(Cl)cc4)CC3)[nH]c2cc1C(F)(F)F [Compound 41] |  | 2300 | % Inhibition, Androgen Receptor Binding (Rat Cytosol) ([2]; Concentration 1000 nM, 1 µM): 20%
11 | OC1(c2cc3cc(Cl)c(C(F)(F)F)cc3[nH]2)CCN(Cc2ccc(F)cc2)CC1 [Compound 28] | −3.4 | 7000 | 
12 | OC1(c2cc3cc(Cl)c(C(F)(F)F)cc3[nH]2)CCN(Cc2ccc(Cl)c(Cl)c2)CC1 [Compound 36] | −34 | > 100000 | 
13 | CC(O)(c1cc2cc([N+](=O)[O-])c(C(F)(F)F)cc2[nH]1)S(=O)(=O)c1ccc(Cl)c(Cl)c1 (racemic) [Compound 255] | 26 |  | 
14 | CC(C)(C)c1ccc(CN2CCC(O)(c3cc4cc(Cl)c(C(F)(F)F)cc4[nH]3)CC2)cc1 [Compound 32] | 34 | 43000 | 
15 | COc1cccc(CN2CCC(O)(c3cc4cc([N+](=O)[O-])c(C(F)(F)F)cc4[nH]3)CC2)c1 [Compound 38] |  | 8800 | % Inhibition, Androgen Receptor Binding (Rat Cytosol) ([2]; Concentration 1000 nM, 1 µM): 16%
16 | COc1cccc(CN2CCC(O)(c3cc4cc([N+](=O)[O-])c(C(F)(F)F)cc4[nH]3)CC2)c1 [Compound 39] |  | > 6100 | % Inhibition, Androgen Receptor Binding (Rat Cytosol) ([2]; Concentration 1000 nM, 1 µM): 6%
17 | Cc1ccc(CN2CCC(O)(c3cc4cc(Cl)c(C(F)(F)F)cc4[nH]3)CC2)cc1 [Compound 30] | −7.7 | 4100 | 
18 | Cc1ccc(CN2CCC(O)(c3cc4cc([N+](=O)[O-])c(C(F)(F)F)cc4[nH]3)CC2)cc1 [Compound 27] |  | 3100 | 
19 | CC(O)(C[S+]([O-])c1ccccc1)c1cc2cc(Cl)c(C(F)(F)F)cc2[nH]1 (centres unmarked) [Compound 115] |  | 1300 | % Inhibition, Androgen Receptor Binding (Rat Cytosol) ([2]; Concentration 1000 nM, 1 µM): 54.5%
20 | O=[N+]([O-])c1cc2cc(C3(O)CCN(Cc4ccc(F)cc4)CC3)[nH]c2cc1C(F)(F)F [Compound 37] |  | 3600 | inhibition at 1 µM ([2]; Concentration 1000 nM): 25%
